From patent US20030236306A1, “Stabilized formulations of alpha adrenergic receptor antagonists and the uses thereof” (priority 2002, published 2003)
“Also recorded” adds a separate entry of the source. Counter-ions that a name gives are not always drawn.

Columns and labels:
[1] = Effect of additives on stability, pH 3.5, 60° C.; assay type: physicochemical; settings: 10 mM Sodium Acetate
Description: (§1) The drug is monitored at a detection wavelength of 232 nm.
The pH value of the solutions was readjusted to pH 3.5, as required.
All samples were placed in 10 ml glass serum vials, stoppered with rubber closures with an inert coating (Daikyo Flurotec by WEST Pharmaceutical), and sealed with flip-top caps after sampling. Vials were placed at 60° C. after the weights were recorded.
Sampling occurred at the initial time point and on days 2, 7, and 14.
Vials were weighed, sampled, sealed, re-weighed, and replaced under the selected storage condition until testing at the subsequent time point.

[2] = system: local anesthetic containing an alpha adrenergic receptor agonist; settings: solution of 0.05 mg/ml; cited from earlier work
[3] = Wide-range pH-stability profiling at 40° C.; assay type: physicochemical; settings: 0.1 mg/ml, pH 2-8, 50 mM phosphate or acetate, FIG. 1
Description: as §1
All samples were stored in the dark.
The phosphate buffers were prepared by adding phosphoric acid (3.40 ml) to de-ionized (DI) water, adjusting the pH with 2 N NaOH, and bringing the volume to 1 L in a volumetric flask. The acetate buffers were prepared by adding acetic acid (2.95 ml) to water, adjusting the pH value with 2 N NaOH, and bringing the volume to 1 L in a volumetric flask.
Measurements were performed for pH after samples had been analyzed by HPLC.
In all stability studies, glass serum vials with rubber closures and flip-top seals were used for storage of the samples to minimize fluid loss. The weights of samples were measured at the beginning of the experiment, prior to sampling for analysis, and after resealing the vials to monitor for any weight loss due to heating. No significant weight loss was observed.
At each pH, the concentration was divided by the corresponding initial concentration (day 0) to obtain the percent recovery. The percent recovery was plotted against time for calculation of first-order rate kinetics. The slope of each pH line was calculated as the rate constant and plotted against pH to obtain a wide-range pH-stability profile.

[4] = Tonicity testing by vapor pressure osmometer; assay type: physicochemical; settings: 0.5 mg/ml disodium EDTA, pH 3.5
Text: A vapor pressure osmometer (Westcore Model 5500) was used to measure the osmolarity of the solutions as well as a control of Normal Saline solution (0.9% sodium chloride, USP). The tonicity of the phentolamine solutions was represented by osmolarity. The measured osmolarity was plotted against d-mannitol concentration. A linear relationship was obtained between the osmolarity and d-mannitol concentration. The concentration of d-mannitol required to achieve the same osmolarity as the Normal Saline solution was calculated for the 10 or 50 mM sodium acetate buffered solution.

[5] = Effect of sodium acetate buffer concentration on stability, pH 3.5, 60° C.; assay type: physicochemical
Description: as §1
Tightly sealed glass vials containing the test solutions were placed in an oven at 40° C. or 60° C. All samples were stored in the dark. Aliquots were removed at designated time points for HPLC analysis and pH measurement.
In conjunction with HPLC analysis, pH was measured. The measurement was performed using the same samples as used for the HPLC analysis. The pH meter was calibrated using pH 4.00 and 7.00 buffer standards prior to each measurement.
Samples were incubated at 60° C. with scheduled testing performed at day 0, 2, 7, and 14. The various buffer concentrations were prepared by diluting the 50 mM buffer with water and re-examining the pH value to determine if the pH 3.5 was constant. Measurements of pH were performed after HPLC analysis of the samples.

[6] = systemic doses, usually with marked hypotensive episodes; cited from earlier work

Which “Rate Constant (zero-order)” value ([1]; EDTA, 0.7 mg/ml) does the source give for `Cc1ccc(N(CC2=NCCN2)c2cccc(O)c2)cc1` [Phentolamine Mesylate, phentolamine mesylate] here?
The value was 0.438 µg/mL/day.

What about the “Phentolamine Concentration” value ([1]; EDTA, 0.7 mg/ml, Day 0) of the same compound?
The value was 106 µg/mL.

What about the “Phentolamine Concentration” value ([1]; EDTA, 0.7 mg/ml, Day 2) of the same compound?
Its value is 103 µg/mL.

And the “Rate Constant (zero-order)” value ([1]; Glycerol, 25% w/v)?
Its value is 0.726 µg/mL/day.

And the “Rate Constant (zero-order)” value ([1]; NaCl, 50 mg/ml)?
The value was 1.663 µg/mL/day.

What about the “Rate Constant (zero-order)” value ([1]; Niacinamide, 50 mg/ml) of the same compound?
The value was -0.026 µg/mL/day.

And the “Rate Constant (zero-order)” value ([1]; No additive)?
The value was 1.027 µg/mL/day.

And the “Rate Constant (zero-order)” value ([1]; Propylene glycol, 25% w/v)?
The value was 1.019 µg/mL/day.

What about the “Rate Constant (zero-order)” value ([1]; Sodium metabisulfite, 0.5 mg/ml) of the same compound?
Its value is 1.903 µg/mL/day.

What about the “Rate Constant (zero-order)” value ([1]; d-Mannitol, 40 mg/ml) of the same compound?
Its value is 0.416 µg/mL/day.

What about the “Rate Constant (zero-order)” value ([1]; α-Cyclodextran, 50 mg/ml) of the same compound?
The value was 0.501 µg/mL/day.

And the “reversal of local anesthetic effect” value [2]?
Its value is “can rapidly reverse the effect of a local anesthetic”.

And the “wide-range pH-stability profile (rate of degradation)” value [3]?
The value was “significant increase in rate of degradation was observed at pH above 7; also recorded: samples prepared in acetate buffers appeared to be more stable than their counterparts in the phosphate buffers”.

And the “Calculated % Mannitol for Isotonicity” value ([4]; 10 mM sodium acetate)?
The value was 5.03%.

What about the “Calculated % Mannitol for Isotonicity” value ([4]; 50 mM sodium acetate) of the same compound?
Its value is 4.39%.

What about the “Measured Osmolality” value ([4]; 2% Mannitol, 10 mM sodium acetate) of the same compound?
Its value is 176 mmol/kg.

And the “Measured Osmolality” value ([4]; 2% Mannitol, 50 mM sodium acetate)?
Its value is 193 mmol/kg.

And the “Measured Osmolality” value ([4]; 3% Mannitol, 10 mM sodium acetate)?
Its value is 213 mmol/kg.

What about the “Measured Osmolality” value ([4]; 3% Mannitol, 50 mM sodium acetate) of the same compound?
Its value is 234 mmol/kg.

And the “Measured Osmolality” value ([4]; 4% Mannitol, 10 mM sodium acetate)?
Its value is 253 mmol/kg.

And the “Measured Osmolality” value ([4]; 4% Mannitol, 50 mM sodium acetate)?
The value was 276 mmol/kg.

What about the pH ([5]; Sodium Acetate 0 mM (un-buffered), Day 0) of the same compound?
The pH was 3.6.

And the pH ([5]; Sodium Acetate 0 mM (un-buffered), Day 2)?
The pH was 4.4.

And the pH ([5]; Sodium Acetate 0 mM (un-buffered), Day 7)?
The pH was 5.1.

What about the pH ([5]; Sodium Acetate 0 mM (un-buffered), Day 14) of the same compound?
The pH was 5.3.

What about the pH ([5]; Sodium Acetate 5 mM, Day 0) of the same compound?
The pH was 3.5.

And the pH ([5]; Sodium Acetate 5 mM, Day 2)?
Its pH is 3.8.

And the pH ([5]; Sodium Acetate 5 mM, Day 7)?
The pH was 3.8.

What about the pH ([5]; Sodium Acetate 5 mM, Day 14) of the same compound?
Its pH is 3.8.

And the pH ([5]; Sodium Acetate 10 mM, Day 0)?
The pH was 3.5.

And the pH ([5]; Sodium Acetate 10 mM, Day 2)?
Its pH is 3.7.

What about the pH ([5]; Sodium Acetate 10 mM, Day 7) of the same compound?
Its pH is 3.8.

What about the pH ([5]; Sodium Acetate 10 mM, Day 14) of the same compound?
Its pH is 3.7.

What about the pH ([5]; Sodium Acetate 50 mM, Day 0) of the same compound?
The pH was 3.5.

What about the pH ([5]; Sodium Acetate 50 mM, Day 2) of the same compound?
Its pH is 3.6.

What about the pH ([5]; Sodium Acetate 50 mM, Day 7) of the same compound?
Its pH is 3.6.

And the pH ([5]; Sodium Acetate 50 mM, Day 14)?
Its pH is 3.6.

And the “side effects reported in package insert” value [6]?
The value was “Myocardial infarction, cerebrovascular spasm, and cerebrovascular occlusion have been reported”.
